Measurements reported in article PMC11252457 (Acta Pharmaceutica Sinica. B, 2024).
Values joined by “and” are separate entries in the source; they are usually repeats but may differ in a detail not shown here. Identical values can stand only once. Like-named read-outs stand apart in the source and are kept apart here.

Columns and labels:
WT HIV-1 (IIIB) = assay: microbe, parasite or virus in culture; format: cell-based; settings: for EC50: Human immunodeficiency virus 1, IIIB, MT4, read-out: EC50 IIIB; for SI IIIB: ratio of CC50/EC50, IIIB
[1] = test system: HIV-1 RES056 (K103N/Y181C); assay: microbe, parasite or virus in culture; format: cell-based; settings: for EC50: Human immunodeficiency virus 1, MT4, read-out: EC50 RES056; for SI RES056: ratio of CC50/EC50, RES056
[2] = test system: HIV-1 mutant strain L100I; assay: microbe, parasite or virus in culture; format: cell-based; settings: Human immunodeficiency virus 1, MT4, read-out: EC50 L100I
[3] = test system: HIV-1 mutant strain K103N; assay: microbe, parasite or virus in culture; format: cell-based; settings: for EC50: Human immunodeficiency virus 1, MT4, read-out: EC50 K103N
[4] = test system: HIV-1 mutant strain Y181C; assay: microbe, parasite or virus in culture; format: cell-based; settings: for EC50: Human immunodeficiency virus 1, MT4, read-out: EC50 Y181C
[5] = test system: HIV-1 mutant strain Y188L; assay: microbe, parasite or virus in culture; format: cell-based; settings: for EC50: Human immunodeficiency virus 1, MT4, read-out: EC50 Y188L
[6] = test system: HIV-1 mutant strain E138K; assay: microbe, parasite or virus in culture; format: cell-based; settings: for EC50: Human immunodeficiency virus 1, MT4, read-out: EC50 E138K
[7] = test system: HIV-1 double mutant strain F227L/V106A; assay: microbe, parasite or virus in culture; format: cell-based; settings: for EC50: Human immunodeficiency virus 1, MT4, read-out: EC50 F227L/V106A
recombinant WT HIV-1 RT = recombinant WT HIV-1 RT (Human immunodeficiency virus type 1 group M subtype B, UniProt P03366); assay: HIV-1 RT inhibition assay; format: biochemical
Aqueous solubility = format: physicochemical
[8] = Cytotoxicity in mock-infected MT-4 cells; settings: human
[9] = cited from earlier work

With `Cc1cc(/C=C/C#N)cc(C)c1Oc1nc(NC2CCN(Cc3ccc(P(C)(C)=O)cc3)CC2)nc2ccsc12` [15a, (E)-3-(4-((2-((1-(4-(Dimethylphosphoryl)benzyl)piperidin-4-yl)amino)thieno[3,2-d]pyrimidin-4-yl)oxy)-3,5-dimethylphenyl)acrylonitrile] as the compound, how does the “Fold more effective than ETR, WT” value (WT HIV-1 (IIIB)) read?
Its value is 1.6 fold.

What about the EC50 (WT HIV-1 (IIIB)) of the same compound?
The EC50 was 1.75 ± 0.64 nM.

And the “Fold more effective than ETR, RES056” value [1]?
The value was 5.3 fold.

And the EC50 [1]?
Its EC50 is 15.8 ± 2.62 nM.

And the EC50 [2]?
Its EC50 is 2.84 ± 0.09 nM.

What about the “Fold more effective than ETR, K103N” value [3] of the same compound?
Its value is 2.4 fold and ~2.39 fold.

What about the EC50 [3] of the same compound?
The EC50 was 1.27 ± 0.68 nM.

What about the “Fold more effective than ETR, Y181C” value [4] of the same compound?
The value was 3.3 fold and ~3.31 fold.

And the EC50 [4]?
Its EC50 is 5.38 ± 1.61 nM.

And the “Fold higher activity than RPV, Y188L” value [5]?
The value was “about 9.97 fold”.

What about the “Fold more effective than ETR, Y188L” value [5] of the same compound?
The value was about 2.78 fold.

What about the EC50 [5] of the same compound?
Its EC50 is 7.96 ± 3.89 nM.

What about the “Fold more effective than ETR, E138K” value [6] of the same compound?
Its value is about 2.45 fold.

And the EC50 [6]?
The EC50 was 4.28 ± 1.04 nM.

What about the “Fold higher activity than RPV, F227L/V106A” value [7] of the same compound?
Its value is about 21.7 fold.

What about the “Fold more effective than ETR, F227L/V106A” value [7] of the same compound?
Its value is 4.8 fold and ~4.84 fold.

And the EC50 [7]?
Its EC50 is 3.76 ± 0.46 nM.

And the IC50 (recombinant WT HIV-1 RT)?
The IC50 was 340 ± 90 nM.

What about the Aqueous solubility (Aqueous solubility; pH = 2.0) of the same compound?
Its Aqueous solubility is 283 µg/mL.

And the Aqueous solubility (Aqueous solubility; pH = 7.4)?
Its Aqueous solubility is 27.6 µg/mL.

What about the CC50 at 5 days [8] of the same compound?
Its CC50 at 5 days is 117 ± 23.9 µM.

What does the source list for `COP(=O)(OC)c1ccc(CN2CCC(Nc3nc(Oc4c(C)cc(C#N)cc4C)c4sccc4n3)CC2)cc1` [9b, Dimethyl (4-((4-((4-(4-cyano-2,6-dimethylphenoxy)thieno[3,2-d]pyrimidin-2-yl)amino)piperidin-1-yl)methyl)phenyl)phosphonate]?
EC50 (WT HIV-1 (IIIB)): 3.63 ± 1.15 nM; SI IIIB (WT HIV-1 (IIIB)): 15,014; EC50 [1]: 193 ± 40.4 nM; SI RES056 [1]: 282; EC50 [2]: 10.8 ± 3.42 nM; EC50 [3]: 3.72 ± 1.27 nM; EC50 [4]: 15.3 ± 10.1 nM; EC50 [5]: 9.95 ± 5.61 nM; EC50 [6]: 14.9 ± 8.6 nM; EC50 [7]: 8.14 ± 1.85 nM; IC50 (recombinant WT HIV-1 RT): 350 ± 50 nM; CC50 at 5 days [8]: 54.5 ± 1.29 µM

With `CCOP(=O)(OCC)c1ccc(CN2CCC(Nc3nc(Oc4c(C)cc(C#N)cc4C)c4sccc4n3)CC2)cc1` [9c, Diethyl (4-((4-((4-(4-cyano-2,6-dimethylphenoxy)thieno[3,2-d]pyrimidin-2-yl)amino)piperidin-1-yl)methyl)phenyl)phosphonate] as the compound, how does the EC50 (WT HIV-1 (IIIB)) read?
Its EC50 is 6.9 ± 1.92 nM.

What about the “SI IIIB” value (WT HIV-1 (IIIB)) of the same compound?
The value was 16,957.

And the EC50 [1]?
Its EC50 is 445 ± 109 nM.

What about the “SI RES056” value [1] of the same compound?
The value was 263.

And the EC50 [2]?
The EC50 was 11.5 ± 3.27 nM.

And the EC50 [3]?
The EC50 was at most 4.62 nM.

What about the EC50 [4] of the same compound?
Its EC50 is 13.2 ± 5.6 nM.

What about the EC50 [5] of the same compound?
Its EC50 is 17 ± 11 nM.

And the EC50 [6]?
Its EC50 is 12.3 ± 1.98 nM.

And the EC50 [7]?
Its EC50 is 14.3 ± 4.55 nM.

And the IC50 (recombinant WT HIV-1 RT)?
The IC50 was 760 ± 150 nM.

And the CC50 at 5 days [8]?
The CC50 at 5 days was 117 ± 7.75 µM.

Which results are given for `Cc1cc(C#N)cc(C)c1Oc1nc(NC2CCN(Cc3ccc(P(C)(C)=O)cc3)CC2)nc2ccsc12` [9a, 4-((2-((1-(4-(Dimethylphosphoryl)benzyl)piperidin-4-yl)amino)thieno[3,2-d]pyrimidin-4-yl)oxy)-3,5-dimethylbenzonitrile]?
EC50 (WT HIV-1 (IIIB)): 2.2 ± 0.33 nM; SI IIIB (WT HIV-1 (IIIB)): 97,727; EC50 [1]: 257 ± 95.2 nM; SI RES056 [1]: 837; EC50 [2]: 7.01 ± 1.76 nM; EC50 [3]: 2.66 ± 0.85 nM; EC50 [4]: 12.8 ± 2.62 nM; EC50 [5]: 11.3 ± 0.87 nM; EC50 [6]: 7.33 ± 1.36 nM; EC50 [7]: 21.5 ± 13.5 nM; IC50 (recombinant WT HIV-1 RT): 310 ± 10 nM; CC50 at 5 days [8]: 215 ± 1.17 µM

Which results are given for `Cc1cc(C#N)cc(C)c1Oc1nc(Nc2ccc(C#N)cc2)nc(N)c1Br` [ETR, etravirine, reference compound]?
EC50 (WT HIV-1 (IIIB)): 2.81 ± 1.08 nM; EC50 [1]: 83.3 ± 21.1 nM; EC50 [2]: 8.39 ± 3.4 nM; EC50 [3]: 3.04 ± 0.9 nM; EC50 [4]: 17.8 ± 5.74 nM; EC50 [5]: 22.1 ± 6.33 nM; EC50 [6]: 10.5 ± 2.49 nM; EC50 [7]: 18.2 ± 12.4 nM; Aqueous solubility ([9]; pH = 2.0): 127 µg/mL; Aqueous solubility ([9]; pH = 7.0): <<1 μg/mL; Aqueous solubility ([9]; pH = 7.4): <1 µg/mL; CC50 at 5 days [8]: > 4.59 µM

For `Cc1cc(/C=C/C#N)cc(C)c1Oc1nc(NC2CCN(Cc3ccc(P(=O)(O)O)cc3)CC2)nc2ccsc12` [compound 16, (E)-(4-((4-((4-(4-(2-Cyanovinyl)-2,6-dimethylphenoxy)thieno[3,2-d]pyrimidin-2-yl)amino)piperidin-1-yl)methyl)phenyl)phosphonic acid], which EC50 (WT HIV-1 (IIIB)) is on record?
Its EC50 is 3810 ± 1520 nM.

What about the “SI IIIB” value (WT HIV-1 (IIIB)) of the same compound?
The value was over 57.

What about the EC50 [1] of the same compound?
The EC50 was 170000 nM.

And the “SI RES056” value [1]?
The value was over 1.

And the EC50 [2]?
The EC50 was 13600 nM.

What about the EC50 [3] of the same compound?
The EC50 was 6270 ± 1900 nM.

What about the EC50 [4] of the same compound?
Its EC50 is 30400 nM.

What about the EC50 [5] of the same compound?
Its EC50 is 133000 nM.

What about the EC50 [6] of the same compound?
The EC50 was 19100 nM.

And the EC50 [7]?
Its EC50 is 43500 nM.

What about the CC50 at 5 days [8] of the same compound?
Its CC50 at 5 days is over 217 µM.

With `Cc1cc(C#N)cc(C)c1Oc1nc(NC2CCN(Cc3ccc(P(=O)(OCC(F)(F)F)OCC(F)(F)F)cc3)CC2)nc2ccsc12` [9e, Bis(2,2,2-trifluoroethyl) (4-((4-((4-(4-cyano-2,6-dimethylphenoxy)thieno[3,2-d]pyrimidin-2-yl)amino)piperidin-1-yl)methyl)phenyl)phosphonate] as the compound, how does the EC50 (WT HIV-1 (IIIB)) read?
The EC50 was 33 ± 7.63 nM.

What about the “SI IIIB” value (WT HIV-1 (IIIB)) of the same compound?
Its value is 527.

What about the EC50 [1] of the same compound?
The EC50 was 1300 ± 120 nM.

And the “SI RES056” value [1]?
Its value is 13.

And the EC50 [2]?
The EC50 was 165 ± 111 nM.

And the EC50 [3]?
The EC50 was 45.8 ± 4.61 nM.

And the EC50 [4]?
The EC50 was 248 ± 60.4 nM.

What about the EC50 [5] of the same compound?
The EC50 was 142 ± 63.3 nM.

And the EC50 [6]?
The EC50 was 137 ± 83 nM.

What about the EC50 [7] of the same compound?
The EC50 was 65.1 ± 19.5 nM.

What about the CC50 at 5 days [8] of the same compound?
Its CC50 at 5 days is 17.4 ± 2.85 µM.
